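Test compounds were applied to cells in 96-well plates for 48 hours at 5 doses. GI50 = concentration required for 50% inhibition of growth.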 The source made the active and inactive calls. Cut-off read from the data, not from the text of the source: active = GI50 up to about 1.1 µM and inactive = higher.
Tests used:
Experiment in all cases: growth of human tumour cells (NCI), 48 h
[1] = test system: SK-OV-3
[2] = test system: Malme-3M
[3] = test system: SW-620
[4] = test system: SN12C
[5] = test system: COLO 205
[6] = test system: HL-60
[7] = test system: UACC-257
[8] = test system: SK-MEL-2
[9] = test system: SK-MEL-28
[10] = test system: MCF7
[11] = test system: SF-539
[12] = test system: 786-0
[13] = test system: T47D
[14] = test system: A498
[15] = test system: MDA-N
[16] = test system: SF-295
[17] = test system: IGROV-1
[18] = test system: NCI-H23
[19] = test system: RPMI-8226
[20] = test system: HT-29
[21] = test system: K562
[22] = test system: SK-MEL-5
[23] = test system: OVCAR-8
[24] = test system: SNB-75
[25] = test system: HCC 2998
[26] = test system: MDA-MB-435
[27] = test system: SF-268
[28] = test system: M14
[29] = test system: KM12
[30] = test system: NCI-H522
[31] = test system: ACHN
[32] = test system: OVCAR-5
[33] = test system: HOP-62
[34] = test system: UO-31
[35] = test system: MDA-MB-231
[36] = test system: A549
[37] = test system: U-251
[38] = test system: LOX IMVI
[39] = test system: HCT-15
[40] = test system: SNB-19
[41] = test system: PC-3
[42] = test system: HOP-92
[43] = test system: Hs-578T
[44] = test system: RXF 393
[45] = test system: NCI-H226
[46] = test system: MOLT-4
[47] = test system: CCRF-CEM
[48] = test system: DU-145
[49] = test system: OVCAR-3
[50] = test system: CAKI-1
[51] = test system: BT-549
[52] = test system: EKVX
[53] = test system: SR
[54] = test system: OVCAR-4
[55] = test system: TK-10
[56] = test system: NCI/ADR-RES
[57] = test system: HCT-116
[58] = test system: UACC-62

COC1(CC[C@@H](C)COC2OC(CO)C(O)C(O)C2O)O[C@H]2C[C@H]3[C@@H]4CC=C5C[C@@H](OC6OC(CO)C(OC7OC(C)C(O)C(O)C7O)C(O)C6OC6OC(C)C(O)C(O)C6O)CC[C@]5(C)[C@H]4CC[C@]3(C)[C@H]2[C@@H]1C (stereo not given in full)
GI50 [1]: 1.66 µM (inactive)
GI50 [2]: 3.01 µM (inactive)
GI50 [3]: 1.14 µM (inactive)
GI50 [4]: 5.85 µM (inactive)
GI50 [5]: 5.15 µM (inactive)
GI50 [6]: 18.2 µM (inactive)
GI50 [7]: 3.51 µM (inactive)
GI50 [8]: 4.39 µM (inactive)
GI50 [9]: 2.97 µM (inactive)
GI50 [10]: 6.28 µM (inactive)
GI50 [11]: 1.89 µM (inactive)
GI50 [12]: 2.02 µM (inactive)
GI50 [13]: 6.08 µM (inactive)
GI50 [14]: 10.2 µM (inactive)
GI50 [15]: 2.61 µM (inactive)
GI50 [16]: 2.82 µM (inactive)
GI50 [17]: 4.59 µM (inactive)
GI50 [18]: 3.97 µM (inactive)
GI50 [19]: 6.62 µM (inactive)
GI50 [20]: 2.68 µM (inactive)
GI50 [21]: 18.2 µM (inactive)
GI50 [22]: 6.12 µM (inactive)
GI50 [23]: 3.53 µM (inactive)
GI50 [24]: 2.06 µM (inactive)
GI50 [25]: 3.74 µM (inactive)
GI50 [26]: 2.02 µM (inactive)
GI50 [27]: 3.18 µM (inactive)
GI50 [28]: 2.55 µM (inactive)
GI50 [29]: 2.1 µM (inactive)
GI50 [30]: 2.08 µM (inactive)
GI50 [31]: 11.4 µM (inactive)
GI50 [32]: 4.41 µM (inactive)
GI50 [33]: 2.56 µM (inactive)
GI50 [34]: 2.92 µM (inactive)
GI50 [35]: 1.6 µM (inactive)
GI50 [36]: 2 µM (inactive)
GI50 [37]: 1.81 µM (inactive)
GI50 [38]: 1.73 µM (inactive)
GI50 [39]: 1.98 µM
GI50 [40]: 3.17 µM (inactive)
GI50 [41]: 3.13 µM (inactive)
GI50 [42]: 3.25 µM (inactive)
GI50 [43]: 2.55 µM (inactive)
GI50 [44]: 3.41 µM (inactive)
GI50 [45]: 9.18 µM (inactive)
GI50 [46]: 21.7 µM (inactive)
GI50 [47]: 17.9 µM (inactive)
GI50 [48]: 2.28 µM (inactive)
GI50 [49]: 2.36 µM (inactive)
GI50 [50]: 1.53 µM (inactive)
GI50 [51]: 3.52 µM (inactive)
GI50 [52]: 22.1 µM (inactive)
GI50 [53]: 25.1 µM (inactive)
GI50 [54]: 3.54 µM (inactive)
GI50 [55]: 17.2 µM (inactive)
GI50 [56]: 3.18 µM (inactive)

c1ccc(CN2C3C4N(Cc5ccccc5)C2C2N(Cc5ccccc5)C(C(N2Cc2ccccc2)N4Cc2ccccc2)N3Cc2ccccc2)cc1
GI50 [1]: > 100 µM (inactive)
GI50 [3]: > 100 µM (inactive)
GI50 [4]: > 100 µM (inactive)
GI50 [5]: > 100 µM (inactive)
GI50 [6]: > 100 µM (inactive)
GI50 [7]: > 100 µM (inactive)
GI50 [8]: > 100 µM (inactive)
GI50 [9]: > 100 µM (inactive)
GI50 [10]: > 100 µM (inactive)
GI50 [11]: > 100 µM (inactive)
GI50 [12]: > 100 µM (inactive)
GI50 [13]: > 100 µM (inactive)
GI50 [14]: > 100 µM (inactive)
GI50 [15]: > 100 µM (inactive)
GI50 [16]: > 100 µM (inactive)
GI50 [17]: > 100 µM (inactive)
GI50 [18]: > 100 µM (inactive)
GI50 [19]: > 100 µM (inactive)
GI50 [20]: > 100 µM (inactive)
GI50 [21]: > 100 µM (inactive)
GI50 [22]: > 100 µM (inactive)
GI50 [23]: > 100 µM (inactive)
GI50 [24]: > 100 µM (inactive)
GI50 [25]: > 100 µM (inactive)
GI50 [26]: > 100 µM (inactive)
GI50 [27]: > 100 µM (inactive)
GI50 [28]: > 100 µM (inactive)
GI50 [57]: > 100 µM (inactive)
GI50 [29]: > 100 µM (inactive)
GI50 [30]: > 100 µM (inactive)
GI50 [31]: > 100 µM (inactive)
GI50 [32]: > 100 µM (inactive)
GI50 [33]: > 100 µM (inactive)
GI50 [58]: > 100 µM (inactive)
GI50 [35]: > 100 µM (inactive)
GI50 [36]: > 100 µM (inactive)
GI50 [37]: > 100 µM (inactive)
GI50 [38]: > 100 µM (inactive)
GI50 [39]: > 100 µM
GI50 [41]: > 100 µM (inactive)
GI50 [42]: > 100 µM (inactive)
GI50 [43]: > 100 µM (inactive)
GI50 [44]: > 100 µM (inactive)
GI50 [45]: > 100 µM (inactive)
GI50 [46]: > 100 µM (inactive)
GI50 [47]: 40.1 µM (inactive)
GI50 [48]: > 100 µM (inactive)
GI50 [49]: > 100 µM (inactive)
GI50 [50]: > 100 µM (inactive)
GI50 [51]: > 100 µM (inactive)
GI50 [52]: > 100 µM (inactive)
GI50 [53]: > 100 µM (inactive)
GI50 [55]: > 100 µM (inactive)
GI50 [56]: > 100 µM (inactive)

From ChEMBL document CHEMBL1201862, “PubChem BioAssay data set” (2004)
